# Data from US20260158017A1, “KIF18A INHIBITOR” (WIGEN BIOMEDICINE TECHNOLOGY (SHANGHAI) CO., LTD., priority 2021, published 2026).
# Molecular target: T1, Recombinant human KIF18A (1-467His-tagged) protein (Homo sapiens, UniProt Q8NI77)
# T1 construct: Recombinant human KIF18A (1-467His-tagged) protein; His; made in house
# Assay: KIF18A enzyme assay (microtubule-stimulated ATPase activity, ADP-Glo)
# Assay type: biochemical
# Settings: 30 nM KIF18A, 75 μM ATP, 30 μg/mL pig microtubules; read-out: Inhibitory activity against KIF18A IC50
# Method: In Vitro Assay of the Compounds of the Present Invention for Inhibiting Enzymatic Activity of KIF18A
# KIF18A enzyme assay: The enzymatic activity of KIF18A after treatment with the compounds was measured by an assay of microtubule-stimulated ATPase activity. ADP generated from the ATPase reaction was measured in this assay. The compounds were serially diluted 2-fold in DMSO over a range of 22 concentration points. […] Concentrations of KIF18A protein, microtubules, and ATP in the reaction were optimized for a standardized homogenous enzyme assay using an ADP-Glo kinase/ATPase assay kit. A reaction buffer [(15 mM Tris, pH 7.5), 10 mM MgCl2, 0.01% PluronicF-68, 1 μM paclitaxel, and 30 μg/mL pig microtubules] was prepared. […] The resulting reaction mixture was incubated at room temperature for another 15 min. 5 μL of ADP-Glo reagent and 2.5 μL of the reaction mixture were mixed and the resulting mixture was incubated at room temperature for 40 min. 10 μL of ADP-Glo detection reagent was added and the mixture was incubated at room temperature for 40 min. Luminescence was read using a microplate reader and compared with that of the DMSO group, and then the inhibition percentages and IC50 values of the compounds were calculated.
# T1 sequence (Q8NI77 1-467): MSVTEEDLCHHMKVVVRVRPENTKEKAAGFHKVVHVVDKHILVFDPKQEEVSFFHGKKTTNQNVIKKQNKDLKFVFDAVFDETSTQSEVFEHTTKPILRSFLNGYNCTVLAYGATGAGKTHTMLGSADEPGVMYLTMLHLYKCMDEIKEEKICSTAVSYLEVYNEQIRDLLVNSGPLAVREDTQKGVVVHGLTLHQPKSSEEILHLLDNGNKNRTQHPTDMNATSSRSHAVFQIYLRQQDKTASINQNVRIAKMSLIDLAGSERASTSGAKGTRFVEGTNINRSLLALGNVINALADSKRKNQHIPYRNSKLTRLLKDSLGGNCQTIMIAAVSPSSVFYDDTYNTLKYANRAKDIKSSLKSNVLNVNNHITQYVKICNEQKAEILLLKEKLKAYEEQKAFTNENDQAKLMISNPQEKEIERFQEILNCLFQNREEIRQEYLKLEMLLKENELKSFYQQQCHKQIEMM
# T1 sequence (P02550 whole entry partner): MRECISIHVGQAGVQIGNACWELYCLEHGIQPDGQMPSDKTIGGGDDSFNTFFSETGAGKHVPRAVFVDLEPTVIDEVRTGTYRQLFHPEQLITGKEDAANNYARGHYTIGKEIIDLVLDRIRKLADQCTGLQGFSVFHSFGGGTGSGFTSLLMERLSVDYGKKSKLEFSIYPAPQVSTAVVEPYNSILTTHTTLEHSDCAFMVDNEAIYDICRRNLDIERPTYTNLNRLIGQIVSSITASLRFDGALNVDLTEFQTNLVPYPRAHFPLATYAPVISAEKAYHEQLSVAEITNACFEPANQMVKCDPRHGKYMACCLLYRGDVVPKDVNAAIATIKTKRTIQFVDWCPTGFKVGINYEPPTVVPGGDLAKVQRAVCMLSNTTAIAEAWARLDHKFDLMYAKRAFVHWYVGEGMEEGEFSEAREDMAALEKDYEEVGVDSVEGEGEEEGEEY
# T1 sequence (P02554 whole entry partner): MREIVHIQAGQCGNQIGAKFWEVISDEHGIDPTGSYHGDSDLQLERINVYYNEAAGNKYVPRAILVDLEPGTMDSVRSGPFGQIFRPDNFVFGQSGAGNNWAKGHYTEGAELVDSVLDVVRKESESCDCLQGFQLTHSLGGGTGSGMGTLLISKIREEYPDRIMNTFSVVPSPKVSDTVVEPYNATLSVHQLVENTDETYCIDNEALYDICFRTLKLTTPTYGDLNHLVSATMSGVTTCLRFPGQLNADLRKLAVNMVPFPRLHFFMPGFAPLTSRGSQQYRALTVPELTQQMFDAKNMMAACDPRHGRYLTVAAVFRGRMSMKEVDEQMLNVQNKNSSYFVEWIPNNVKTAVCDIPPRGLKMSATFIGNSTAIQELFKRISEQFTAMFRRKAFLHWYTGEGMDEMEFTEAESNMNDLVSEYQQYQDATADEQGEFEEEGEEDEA
row,IC50 [nM],Structure (SMILES)
1,100 to 500,C[C@@H]1CN(c2cc(C(=O)Nc3ccc(S(=O)(=O)NCCO)cc3N3CCC4(CC3)CC4)ccc2[N+](=O)[O-])CCO1 [Compound 50]
2,100 to 500,C[C@H]1CN(c2cc(C(=O)Nc3ccc(S(=O)(=O)NCCO)cc3N3CCC4(CC3)CC4)ccc2[N+](=O)[O-])CCO1 [Compound 51]
3,100 to 500,O=C(Nc1ccc(S(=O)(=O)NCCO)cc1N1CCC2(CC1)CC2)c1ccc([N+](=O)[O-])c(N2CC(F)(F)C2)c1 [Compound 52]
4,100 to 500,O=C(Nc1ccc(S(=O)(=O)NCCO)cc1N1CCC2(CC1)CC2)c1ccc([N+](=O)[O-])c(OCCC(F)(F)F)c1 [Compound 53]
5,100 to 500,O=C(Nc1ccc(S(=O)(=O)NCCO)cc1N1CCC2(CC1)CC2)c1ccc([N+](=O)[O-])c(N2CCC3(CC3)C2)c1 [Compound 54]
6,100 to 500,O=C(Nc1ccc(S(=O)(=O)NCCO)cc1N1CCC2(CC1)CC2)c1ccc([N+](=O)[O-])c(OC2CCC2)c1 [Compound 55]
7,100 to 500,CC1(F)CCN(c2cc(C(=O)Nc3ccc(S(=O)(=O)NCCO)cc3N3CCC4(CC3)CC4)ccc2[N+](=O)[O-])C1 (stereo not shown) [Compound 56]
8,100 to 500,O=C(Nc1ccc(S(=O)(=O)NCCO)cc1N1CCC2(CC1)CC2)c1ccc([N+](=O)[O-])c(N2CCC(F)CC2)c1 [Compound 57]
9,100 to 500,O=C(Nc1ccc(S(=O)(=O)NCCO)cc1N1CCC2(CC1)CC2)c1ccc([N+](=O)[O-])c(N2CC3CC3C2)c1 (stereo not shown) [Compound 58]
10,100 to 500,CC(C)(CO)Nc1cc(C(=O)Nc2ccc(S(=O)(=O)NCCO)cc2N2CCC3(CC2)CC3)ccc1[N+](=O)[O-] [Compound 59]
11,100 to 500,O=C(Nc1ccc(S(=O)(=O)NCCO)cc1N1CCC2(CC1)CC2)c1ccc([N+](=O)[O-])c(N2CCOCC2)c1 [Compound 60]
12,100 to 500,C[C@@H](CO)NS(=O)(=O)c1ccc(NC(=O)c2ccc([N+](=O)[O-])c(N3CCC(F)(F)CC3)c2)c(N2CCC3(CC2)CC3)c1 [Compound 61]
13,100 to 500,C[C@H](CO)NS(=O)(=O)c1ccc(NC(=O)c2ccc([N+](=O)[O-])c(N3CCC(F)(F)CC3)c2)c(N2CCC3(CC2)CC3)c1 [Compound 62]
14,100 to 500,C[C@@H]1CN(c2cc(C(=O)Nc3ccc(S(=O)(=O)N[C@@H](C)CO)cc3N3CCC4(CC3)CC4)ccc2[N+](=O)[O-])CCO1 [Compound 63]
15,100 to 500,C[C@H](CO)NS(=O)(=O)c1ccc(NC(=O)c2ccc([N+](=O)[O-])c(N3CCO[C@H](C)C3)c2)c(N2CCC3(CC2)CC3)c1 [Compound 64]
16,≤ 100,C[C@@H]1CN(c2nc(NC(=O)c3ccc(NS(=O)(=O)CCO)cc3N3CCC4(CC3)CC4)ccc2[N+](=O)[O-])CCO1 [Compound 66]
17,≤ 100,C[C@H]1CN(c2nc(NC(=O)c3ccc(NS(=O)(=O)CCO)cc3N3CCC4(CC3)CC4)ccc2[N+](=O)[O-])CCO1 [Compound 67]
18,≤ 100,O=C(Nc1ccc([N+](=O)[O-])c(N2CC(F)(F)C2)n1)c1ccc(NS(=O)(=O)CCO)cc1N1CCC2(CC1)CC2 [Compound 68]
19,≤ 100,O=C(Nc1ccc([N+](=O)[O-])c(OCCC(F)(F)F)n1)c1ccc(NS(=O)(=O)CCO)cc1N1CCC2(CC1)CC2 [Compound 69]
20,≤ 100,O=C(Nc1ccc([N+](=O)[O-])c(N2CCC3(CC3)C2)n1)c1ccc(NS(=O)(=O)CCO)cc1N1CCC2(CC1)CC2 [Compound 70]
21,≤ 100,O=C(Nc1ccc([N+](=O)[O-])c(OC2CCC2)n1)c1ccc(NS(=O)(=O)CCO)cc1N1CCC2(CC1)CC2 [Compound 71]
22,≤ 100,CC1(F)CCN(c2nc(NC(=O)c3ccc(NS(=O)(=O)CCO)cc3N3CCC4(CC3)CC4)ccc2[N+](=O)[O-])C1 (stereo not shown) [Compound 72]
23,≤ 100,O=C(Nc1ccc([N+](=O)[O-])c(N2CCC(F)CC2)n1)c1ccc(NS(=O)(=O)CCO)cc1N1CCC2(CC1)CC2 [Compound 73]
24,≤ 100,O=C(Nc1ccc([N+](=O)[O-])c(N2CC3CC3C2)n1)c1ccc(NS(=O)(=O)CCO)cc1N1CCC2(CC1)CC2 (stereo not shown) [Compound 74]
25,≤ 100,CC(C)(CO)Nc1nc(NC(=O)c2ccc(NS(=O)(=O)CCO)cc2N2CCC3(CC2)CC3)ccc1[N+](=O)[O-] [Compound 75]
26,≤ 100,O=C(Nc1ccc([N+](=O)[O-])c(N2CCOCC2)n1)c1ccc(NS(=O)(=O)CCO)cc1N1CCC2(CC1)CC2 [Compound 76]
27,≤ 100,C[C@@H](CO)S(=O)(=O)Nc1ccc(C(=O)Nc2ccc([N+](=O)[O-])c(N3CCC(F)(F)CC3)n2)c(N2CCC3(CC2)CC3)c1 [Compound 77]
28,≤ 100,C[C@H](CO)S(=O)(=O)Nc1ccc(C(=O)Nc2ccc([N+](=O)[O-])c(N3CCC(F)(F)CC3)n2)c(N2CCC3(CC2)CC3)c1 [Compound 78]

row,IC50 [nM],Structure (SMILES)
1,≤ 100,C[C@@H]1CN(c2nc(NC(=O)c3ccc(NS(=O)(=O)[C@@H](C)CO)cc3N3CCC4(CC3)CC4)ccc2[N+](=O)[O-])CCO1 [Compound 79]
2,≤ 100,C[C@@H]1CN(c2nc(NC(=O)c3ccc(NS(=O)(=O)[C@H](C)CO)cc3N3CCC4(CC3)CC4)ccc2[N+](=O)[O-])CCO1 [Compound 80]
3,≤ 100,O=C(Nc1ccc([N+](=O)[O-])c(N2CCC(F)(F)CC2)n1)c1ccc(S(=O)(=O)NCCO)cc1N1CCC2(CC1)CC2 [Compound 81]
4,≤ 100,C[C@@H]1CN(c2nc(NC(=O)c3ccc(S(=O)(=O)NCCO)cc3N3CCC4(CC3)CC4)ccc2[N+](=O)[O-])CCO1 [Compound 82]
5,≤ 100,C[C@H]1CN(c2nc(NC(=O)c3ccc(S(=O)(=O)NCCO)cc3N3CCC4(CC3)CC4)ccc2[N+](=O)[O-])CCO1 [Compound 83]
6,≤ 100,O=C(Nc1ccc([N+](=O)[O-])c(N2CC(F)(F)C2)n1)c1ccc(S(=O)(=O)NCCO)cc1N1CCC2(CC1)CC2 [Compound 84]
7,≤ 100,O=C(Nc1ccc([N+](=O)[O-])c(OCCC(F)(F)F)n1)c1ccc(S(=O)(=O)NCCO)cc1N1CCC2(CC1)CC2 [Compound 85]
8,≤ 100,O=C(Nc1ccc([N+](=O)[O-])c(N2CCC3(CC3)C2)n1)c1ccc(S(=O)(=O)NCCO)cc1N1CCC2(CC1)CC2 [Compound 86]
9,≤ 100,O=C(Nc1ccc([N+](=O)[O-])c(OC2CCC2)n1)c1ccc(S(=O)(=O)NCCO)cc1N1CCC2(CC1)CC2 [Compound 87]
10,≤ 100,CC1(F)CCN(c2nc(NC(=O)c3ccc(S(=O)(=O)NCCO)cc3N3CCC4(CC3)CC4)ccc2[N+](=O)[O-])C1 (stereo not shown) [Compound 88]
11,≤ 100,O=C(Nc1ccc([N+](=O)[O-])c(N2CCC(F)CC2)n1)c1ccc(S(=O)(=O)NCCO)cc1N1CCC2(CC1)CC2 [Compound 89]
12,≤ 100,O=C(Nc1ccc([N+](=O)[O-])c(N2CC3CC3C2)n1)c1ccc(S(=O)(=O)NCCO)cc1N1CCC2(CC1)CC2 (stereo not shown) [Compound 90]
13,≤ 100,CC(C)(CO)Nc1nc(NC(=O)c2ccc(S(=O)(=O)NCCO)cc2N2CCC3(CC2)CC3)ccc1[N+](=O)[O-] [Compound 91]
14,≤ 100,O=C(Nc1ccc([N+](=O)[O-])c(N2CCOCC2)n1)c1ccc(S(=O)(=O)NCCO)cc1N1CCC2(CC1)CC2 [Compound 92]
15,≤ 100,C[C@@H](CO)NS(=O)(=O)c1ccc(C(=O)Nc2ccc([N+](=O)[O-])c(N3CCC(F)(F)CC3)n2)c(N2CCC3(CC2)CC3)c1 [Compound 93]
16,≤ 100,C[C@H](CO)NS(=O)(=O)c1ccc(C(=O)Nc2ccc([N+](=O)[O-])c(N3CCC(F)(F)CC3)n2)c(N2CCC3(CC2)CC3)c1 [Compound 94]
17,≤ 100,C[C@@H]1CN(c2nc(NC(=O)c3ccc(S(=O)(=O)N[C@@H](C)CO)cc3N3CCC4(CC3)CC4)ccc2[N+](=O)[O-])CCO1 [Compound 95]
18,≤ 100,C[C@H](CO)NS(=O)(=O)c1ccc(C(=O)Nc2ccc([N+](=O)[O-])c(N3CCO[C@H](C)C3)n2)c(N2CCC3(CC2)CC3)c1 [Compound 96]
19,≤ 100,C[C@@H]1CN(c2cc(NC(=O)c3cnc(NS(=O)(=O)CCO)cc3N3CCC4(CC3)CC4)ccc2[N+](=O)[O-])CCO1 [Compound 98]
20,≤ 100,C[C@H]1CN(c2cc(NC(=O)c3cnc(NS(=O)(=O)CCO)cc3N3CCC4(CC3)CC4)ccc2[N+](=O)[O-])CCO1 [Compound 99]
21,≤ 100,O=C(Nc1ccc([N+](=O)[O-])c(N2CC(F)(F)C2)c1)c1cnc(NS(=O)(=O)CCO)cc1N1CCC2(CC1)CC2 [Compound 100]
22,≤ 100,O=C(Nc1ccc([N+](=O)[O-])c(OCCC(F)(F)F)c1)c1cnc(NS(=O)(=O)CCO)cc1N1CCC2(CC1)CC2 [Compound 101]
23,≤ 100,O=C(Nc1ccc([N+](=O)[O-])c(N2CCC3(CC3)C2)c1)c1cnc(NS(=O)(=O)CCO)cc1N1CCC2(CC1)CC2 [Compound 102]
24,≤ 100,O=C(Nc1ccc([N+](=O)[O-])c(OC2CCC2)c1)c1cnc(NS(=O)(=O)CCO)cc1N1CCC2(CC1)CC2 [Compound 103]
25,≤ 100,CC1(F)CCN(c2cc(NC(=O)c3cnc(NS(=O)(=O)CCO)cc3N3CCC4(CC3)CC4)ccc2[N+](=O)[O-])C1 (stereo not shown) [Compound 104]
26,≤ 100,O=C(Nc1ccc([N+](=O)[O-])c(N2CCC(F)CC2)c1)c1cnc(NS(=O)(=O)CCO)cc1N1CCC2(CC1)CC2 [Compound 105]
27,≤ 100,O=C(Nc1ccc([N+](=O)[O-])c(N2CC3CC3C2)c1)c1cnc(NS(=O)(=O)CCO)cc1N1CCC2(CC1)CC2 (stereo not shown) [Compound 106]
